# What was measured:
# Assay in all cases: relative viability (nuclei count vs DMSO), 5 days (fraction); higher = more cells survive
# RERF-LC-KJ = system: RERF-LC-KJ
# Outline: (§1)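 The day after seeding in 1536-well plates, lung cancer cell lines were treated by pin tool with a single drug, or with a fixed anchor-drug dose together with five library-drug doses (not always all listed) in √10 steps. After 5 days, a combined fix-and-stain solution (final 0.05% Triton X-100, 1% formaldehyde, 1 ug/ml Hoechst) was added. Nuclei counted on 4× images gave relative viability as treated counts over vehicle counts, reported as the median of duplicate plates.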
# NCI-H460 = system: NCI-H460
# Outline: as §1
# NCI-H1355 = system: NCI-H1355
# Outline: as §1
# LU99A = system: LU99A
# Outline: as §1
# NCI-H1793 = system: NCI-H1793
# Outline: as §1
# EKVX = system: EKVX
# Outline: as §1
# NCI-H650 = system: NCI-H650
# Outline: as §1
# SW 1573 = system: SW 1573
# Outline: as §1
# LOU-NH91 = system: LOU-NH91
# Outline: as §1
# NCI-H1993 = system: NCI-H1993
# Outline: as §1
# NCI-H2347 = system: NCI-H2347
# Outline: as §1
# NCI-H23 = system: NCI-H23
# Outline: as §1
# NCI-H1650 = system: NCI-H1650
# Outline: as §1
# LC-2-ad = system: LC-2-ad
# Outline: as §1
# PC-3 [JPC-3] = system: PC-3 [JPC-3]
# Outline: as §1
# BEN = system: BEN
# Outline: as §1
# NCI-H2228 = system: NCI-H2228
# Outline: as §1
# NCI-H1666 = system: NCI-H1666
# Outline: as §1
# NCI-H838 = system: NCI-H838
# Outline: as §1
# LCLC-97TM1 = system: LCLC-97TM1
# Outline: as §1
# NCI-H1915 = system: NCI-H1915
# Outline: as §1
# NCI-H520 = system: NCI-H520
# Outline: as §1
# A-427 = system: A-427
# Outline: as §1
compound,measurement,setting,value
O=c1[nH]c2ccccc2n1C1CCN(CCCC(c2ccc(F)cc2)c2ccc(F)cc2)CC1 [Pimozide] + CS(=O)(=O)CCNCc1ccc(-c2ccc3ncnc(Nc4ccc(OCc5cccc(F)c5)c(Cl)c4)c3c2)o1 [Lapatinib] (partner 2 µM),relative viability,RERF-LC-KJ; first compound 0.08 µM,0.885
same,relative viability,RERF-LC-KJ; first compound 0.253 µM,0.801
same,relative viability,RERF-LC-KJ; first compound 0.8 µM,0.776
same,relative viability,RERF-LC-KJ; first compound 2.53 µM,0.784
same,relative viability,RERF-LC-KJ; first compound 8 µM,0.742
same,relative viability,NCI-H460; first compound 0.08 µM,1.06
same,relative viability,NCI-H460; first compound 0.253 µM,0.859
same,relative viability,NCI-H460; first compound 0.8 µM,0.949
same,relative viability,NCI-H460; first compound 2.53 µM,0.856
same,relative viability,NCI-H460; first compound 8 µM,0.826
same,relative viability,NCI-H1355; first compound 0.08 µM,1.02
same,relative viability,NCI-H1355; first compound 0.253 µM,1.09
same,relative viability,NCI-H1355; first compound 0.8 µM,0.933
same,relative viability,NCI-H1355; first compound 2.53 µM,0.939
same,relative viability,NCI-H1355; first compound 8 µM,0.982
same,relative viability,LU99A; first compound 0.08 µM,0.969
same,relative viability,LU99A; first compound 0.253 µM,0.982
same,relative viability,LU99A; first compound 0.8 µM,0.757
same,relative viability,LU99A; first compound 2.53 µM,1.03
same,relative viability,LU99A; first compound 8 µM,0.888
same,relative viability,NCI-H1793; first compound 0.08 µM,0.785
same,relative viability,NCI-H1793; first compound 0.253 µM,0.641
same,relative viability,NCI-H1793; first compound 0.8 µM,0.593
same,relative viability,NCI-H1793; first compound 2.53 µM,0.481
same,relative viability,NCI-H1793; first compound 8 µM,0.654
same,relative viability,EKVX; first compound 0.253 µM,0.177
same,relative viability,EKVX; first compound 0.8 µM,0.221
same,relative viability,EKVX; first compound 2.53 µM,0.216
same,relative viability,EKVX; first compound 8 µM,0.464
same,relative viability,NCI-H650; first compound 0.08 µM,1.03
same,relative viability,NCI-H650; first compound 0.253 µM,0.861
same,relative viability,NCI-H650; first compound 0.8 µM,0.694
same,relative viability,NCI-H650; first compound 2.53 µM,0.716
same,relative viability,NCI-H650; first compound 8 µM,0.835
same,relative viability,SW 1573; first compound 0.08 µM,1.11
same,relative viability,SW 1573; first compound 0.253 µM,1.12
same,relative viability,SW 1573; first compound 0.8 µM,1.12
same,relative viability,SW 1573; first compound 2.53 µM,1.16
same,relative viability,SW 1573; first compound 8 µM,1.11
same,relative viability,LOU-NH91; first compound 0.08 µM,0.736
same,relative viability,LOU-NH91; first compound 0.253 µM,0.694
same,relative viability,LOU-NH91; first compound 0.8 µM,0.751
same,relative viability,LOU-NH91; first compound 2.53 µM,0.833
same,relative viability,LOU-NH91; first compound 8 µM,0.785
same,relative viability,NCI-H1993; first compound 0.08 µM,0.894
same,relative viability,NCI-H1993; first compound 0.253 µM,0.714
same,relative viability,NCI-H1993; first compound 0.8 µM,0.697
same,relative viability,NCI-H1993; first compound 2.53 µM,0.788
same,relative viability,NCI-H1993; first compound 8 µM,0.901
same,relative viability,NCI-H2347; first compound 0.08 µM,0.834
same,relative viability,NCI-H2347; first compound 0.253 µM,0.92
same,relative viability,NCI-H2347; first compound 0.8 µM,0.771
same,relative viability,NCI-H2347; first compound 2.53 µM,0.926
same,relative viability,NCI-H2347; first compound 8 µM,0.978
same,relative viability,NCI-H23; first compound 0.08 µM,0.938
same,relative viability,NCI-H23; first compound 0.253 µM,1.01
same,relative viability,NCI-H23; first compound 0.8 µM,1.06
same,relative viability,NCI-H23; first compound 2.53 µM,0.847
same,relative viability,NCI-H23; first compound 8 µM,0.922
same,relative viability,NCI-H1650; first compound 0.08 µM,0.711
same,relative viability,NCI-H1650; first compound 0.253 µM,0.809
same,relative viability,NCI-H1650; first compound 0.8 µM,0.451
same,relative viability,NCI-H1650; first compound 2.53 µM,0.733
same,relative viability,NCI-H1650; first compound 8 µM,0.146
same,relative viability,LC-2-ad; first compound 0.08 µM,0.943
same,relative viability,LC-2-ad; first compound 0.253 µM,0.918
same,relative viability,LC-2-ad; first compound 0.8 µM,0.918
same,relative viability,LC-2-ad; first compound 2.53 µM,0.949
same,relative viability,LC-2-ad; first compound 8 µM,0.6
same,relative viability,PC-3 [JPC-3]; first compound 0.253 µM,0.414
same,relative viability,PC-3 [JPC-3]; first compound 0.8 µM,0.409
same,relative viability,PC-3 [JPC-3]; first compound 2.53 µM,0.441
same,relative viability,PC-3 [JPC-3]; first compound 8 µM,0.406
same,relative viability,BEN; first compound 0.08 µM,0.615
same,relative viability,BEN; first compound 0.253 µM,0.854
same,relative viability,BEN; first compound 0.8 µM,0.73
same,relative viability,BEN; first compound 2.53 µM,0.669
same,relative viability,BEN; first compound 8 µM,0.728
same,relative viability,NCI-H2228; first compound 0.08 µM,1.18
same,relative viability,NCI-H2228; first compound 0.253 µM,1.2
same,relative viability,NCI-H2228; first compound 0.8 µM,0.924
same,relative viability,NCI-H2228; first compound 2.53 µM,0.924
same,relative viability,NCI-H2228; first compound 8 µM,0.669
same,relative viability,NCI-H1666; first compound 0.08 µM,0.592
same,relative viability,NCI-H1666; first compound 0.253 µM,0.716
same,relative viability,NCI-H1666; first compound 0.8 µM,0.621
same,relative viability,NCI-H1666; first compound 2.53 µM,0.365
same,relative viability,NCI-H1666; first compound 8 µM,0.464
same,relative viability,NCI-H838; first compound 0.08 µM,1.18
same,relative viability,NCI-H838; first compound 0.253 µM,1.07
same,relative viability,NCI-H838; first compound 0.8 µM,0.954
same,relative viability,NCI-H838; first compound 2.53 µM,0.822
same,relative viability,NCI-H838; first compound 8 µM,0.829
same,relative viability,LCLC-97TM1; first compound 0.08 µM,0.957
same,relative viability,LCLC-97TM1; first compound 0.253 µM,0.856
same,relative viability,LCLC-97TM1; first compound 0.8 µM,0.957
same,relative viability,LCLC-97TM1; first compound 2.53 µM,0.981
same,relative viability,LCLC-97TM1; first compound 8 µM,0.814
same,relative viability,NCI-H1915; first compound 0.08 µM,1.03
same,relative viability,NCI-H1915; first compound 0.253 µM,0.927
same,relative viability,NCI-H1915; first compound 0.8 µM,0.585
same,relative viability,NCI-H1915; first compound 2.53 µM,0.947
same,relative viability,NCI-H1915; first compound 8 µM,0.926
same,relative viability,NCI-H520; first compound 0.08 µM,0.863
same,relative viability,NCI-H520; first compound 0.253 µM,0.922
same,relative viability,NCI-H520; first compound 0.8 µM,0.621
same,relative viability,NCI-H520; first compound 2.53 µM,0.821
same,relative viability,NCI-H520; first compound 8 µM,0.776
same,relative viability,A-427; first compound 0.08 µM,0.941
same,relative viability,A-427; first compound 0.253 µM,1.03
same,relative viability,A-427; first compound 0.8 µM,1.01
same,relative viability,A-427; first compound 2.53 µM,0.911
same,relative viability,A-427; first compound 8 µM,0.985

# Reference: the supplement of paper PMC10307832
